Structures can show the parent of a compound that is named as a salt.
Assays:
[1] = tested on: mitochondrial transcription (7S RNA) in HeLa cells; test: Quantitative real time-PCR assay of inhibition of mitochondrial transcription (7S RNA) in HeLa cells; type: cell-based; details: Homo sapiens, 4 h compound incubation, according to Example 5, read-out: cellular qPCR assay
Description: Quantitative real-time PCR (qRT-PCR), based on the TaqMan™ (Thermo Fisher Scientific, Waltham Mass.) technology, was carried out essentially as described in Held et al. (1996). HeLa cells were plated one day before compound treatment in RPMI medium supplemented with 10% Fetal Calf Serum and 2 mM L-glutamine. Cells were incubated with dilution series of compounds or vehicle (DMSO) for 4 h, prior to harvest and extraction of the RNA using the RNeasy Mini Kit (Qiagen, Hilden D), according to the manufacturer's instructions. RNA concentrations were measured spectroscopically, using a NanoDrop-2000 (Thermo Fisher Scientific, Waltham Mass.) and normalized prior to cDNA synthesis, using a ‘High-Capacity cDNA Reverse Transcription Kit’ (Thermo Fisher Scientific, Waltham Mass.). qRT-PCR was carried out using the ‘TaqMan Fast Advance Master Mix’ (Thermo Fisher Scientific, Waltham Mass.) on a 7500 Fast Real-Time PCR machine (Applied Biosystems, Foster City Calif.)
For these measurements, three genes were used to compare the effect of the scrutinized compounds in relation to their concentration. The POLRMT-gene was used to detect potential influences on nuclear transcription. Mitochondrial transcription in vivo was monitored by measurements 7S RNA. The TBP (TATA-box binding protein) gene was employed as the control (housekeeping gene) during qRT-PCR. The short-lived mitochondrial 7S RNA, which is not post-transcriptionally stabilized, allowed us to monitor rapid changes in mitochondrial transcription activity following compound addition. Biological triplicates were analyzed using the comparative CT Method (ΔΔCt) method (Bubner and Baldwin, 2004) and reported as Rq % values (Rq=Relative quantification=2−ΔΔCt).

[2] = target: mitochondrial RNA polymerase (POLRMT) (Mus musculus, UniProt Q8BKF1); test: Homogeneous TR-FRET assay for mitochondrial transcription activity; type: biochemical; details: homogeneous TR-FRET assay according to Example 4
Chain of mitochondrial RNA polymerase (POLRMT) (Q8BKF1 42-1207): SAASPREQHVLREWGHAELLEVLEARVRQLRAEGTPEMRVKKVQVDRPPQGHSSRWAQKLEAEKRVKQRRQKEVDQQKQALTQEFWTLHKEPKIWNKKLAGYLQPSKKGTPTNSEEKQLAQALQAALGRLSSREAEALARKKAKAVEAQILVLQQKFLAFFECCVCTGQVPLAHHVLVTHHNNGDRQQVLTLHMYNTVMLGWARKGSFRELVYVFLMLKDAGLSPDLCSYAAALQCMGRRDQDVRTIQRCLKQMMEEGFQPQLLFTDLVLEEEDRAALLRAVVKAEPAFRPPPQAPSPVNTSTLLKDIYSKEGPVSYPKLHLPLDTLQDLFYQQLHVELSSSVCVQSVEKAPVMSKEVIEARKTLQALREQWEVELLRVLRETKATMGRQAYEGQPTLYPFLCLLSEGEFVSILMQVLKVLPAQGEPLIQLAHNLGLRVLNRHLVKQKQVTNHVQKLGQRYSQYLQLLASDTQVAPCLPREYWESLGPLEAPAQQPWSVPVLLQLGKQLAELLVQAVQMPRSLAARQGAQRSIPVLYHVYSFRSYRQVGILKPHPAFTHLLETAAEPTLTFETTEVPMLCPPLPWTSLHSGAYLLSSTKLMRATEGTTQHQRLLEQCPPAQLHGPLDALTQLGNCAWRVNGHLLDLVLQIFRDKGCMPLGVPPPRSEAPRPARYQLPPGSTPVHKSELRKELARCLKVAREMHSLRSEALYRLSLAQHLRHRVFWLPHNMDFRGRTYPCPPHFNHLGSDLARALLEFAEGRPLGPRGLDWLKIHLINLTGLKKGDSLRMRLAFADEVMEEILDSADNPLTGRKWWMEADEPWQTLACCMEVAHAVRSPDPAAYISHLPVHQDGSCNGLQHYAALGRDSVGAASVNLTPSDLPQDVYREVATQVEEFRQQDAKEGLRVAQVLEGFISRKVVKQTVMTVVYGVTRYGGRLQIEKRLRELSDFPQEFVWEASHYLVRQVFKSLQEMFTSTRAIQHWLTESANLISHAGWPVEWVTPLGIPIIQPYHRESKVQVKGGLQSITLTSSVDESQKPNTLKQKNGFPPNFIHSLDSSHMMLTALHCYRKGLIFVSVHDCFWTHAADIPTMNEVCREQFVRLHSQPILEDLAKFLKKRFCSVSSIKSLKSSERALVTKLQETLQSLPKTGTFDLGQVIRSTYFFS
How it was run: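 Read-out is TR-FRET (ex 340, em 665 nm) from two adjacent labelled DNA probes annealing to the 407 bp transcript after EDTA/700 mM NaCl stop. Reaction: murine POLRMT, TFAM, TFB2M and LSP plasmid template, compound 10 μM or serial dilution, 10 min rt preincubation, 500 μM each nucleotide, 2 h rt.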

Row | SMILES | IC50 [1] | IC50 [2]
1 | C[C@@H](Oc1ccc2c(-c3ccccc3Cl)cc(Cl)nc2c1)C(=O)N1CCC[C@H](C(=O)O)C1 [Compound 34, (3S)-1-[(2R)-2-[[2-chloro-4-(2-chlorophenyl)-7-quinolyl]oxy]propanoyl]piperidine-3-carboxylic acid] | 10 to 50 nM | 100 to 1000 nM
2 | Cc1cc(F)ccc1-c1cc(Cl)nc2cc(O[C@H](C)C(=O)N3CCC[C@H](C(=O)O)C3)ccc12 [Compound 35, (3S)-1-[(2R)-2-[[2-chloro-4-(4-fluoro-2-methyl-phenyl)-7-quinolyl]oxy]propanoyl]piperidine-3-carboxylic acid] | < 10 nM | 100 to 1000 nM
3 | CNC(=O)[C@H]1CCCN(C(=O)[C@@H](C)Oc2ccc3c(-c4ccc(F)cc4Cl)ccnc3c2)C1 [Compound 38, (3S)-1-[(2R)-2-[[4-(2-chloro-4-fluoro-phenyl)-7-quinolyl]oxy]propanoyl]-N-methyl-piperidine-3-carboxamide] | 10 to 50 nM | 100 to 1000 nM
4 | C[C@@H](Oc1ccc2c(-c3ccc(F)cc3Cl)ccnc2c1)C(=O)N1CC[C@@H](CC(=O)O)C1 [Compound 39, 2-[(3S)-1-[(2R)-2-[[4-(2-chloro-4-fluoro-phenyl)-7-quinolyl]oxy]propanoyl]pyrrolidin-3-yl]acetic acid] | 50 to 500 nM | 100 to 1000 nM
5 | C[C@@H](Oc1ccc2c(-c3ccc(F)cc3Cl)ccnc2c1)C(=O)N1CC[C@H](CC(=O)O)C1 [Compound 40, 2-[(3R)-1-[(2R)-2-[[4-(2-chloro-4-fluoro-phenyl)-7-quinolyl]oxy]propanoyl]pyrrolidin-3-yl]acetic acid] | 50 to 500 nM | 100 to 1000 nM
6 | CCOC(=O)[C@H]1CCCN(C(=O)[C@@H](C)Oc2ccc3c(-c4ccccc4Cl)cc(F)nc3c2)C1 [Compound 41, ethyl (3S)-1-[(2R)-2-[[4-(2-chlorophenyl)-2-fluoro-7-quinolyl]oxy]propanoyl]piperidine-3-carboxylate] | 500 to 5000 nM | 100 to 1000 nM
7 | O=C(O)[C@H]1CCCN(C(=O)COc2ccc3c(-c4ccccc4Cl)ccnc3c2)C1 [Compound 46, (3S)-1-[2-[[4-(2-chlorophenyl)-7-quinolyl]oxy]acetyl]piperidine-3-carboxylic acid] | 50 to 500 nM | 100 to 1000 nM

Second part, the molecule after the results:

Row | IC50 [1] | IC50 [2] | SMILES
8 | 10 to 50 nM | 100 to 1000 nM | CC(C)N(C)C(=O)[C@@H](C)Oc1ccc2c(-c3ccc(F)cc3Cl)ccnc2c1 [Compound 32, (2R)-2-[[4-(2-chloro-4-fluoro-phenyl)-7-quinolyl]oxy]-N-isopropyl-N-methyl-propanamide]
9 | 50 to 500 nM | 100 to 1000 nM | CC(C)OC(=O)[C@@H](C)Oc1ccc2c(-c3ccccc3Cl)ccnc2c1 [Compound 36, (R)-isopropyl 2-((4-(2-chlorophenyl)quinolin-7 yl)oxy)propanoate FA salt]
10 | 50 to 500 nM | 100 to 1000 nM | C[C@@H](Oc1ccc2c(-c3ccc(F)cc3Cl)ccnc2c1)C(=O)N1CCCC1 [Compound 42, (2R)-2-[[4-(2-chloro-4-fluoro-phenyl)-7-quinolyl]oxy]-1-pyrrolidin-1-yl-propan-1-one]
11 | 50 to 500 nM | 100 to 1000 nM | C[C@@H](Oc1ccc2c(-c3ccc(F)cc3Cl)ccnc2c1)C(=O)N(C)C [Compound 45, (2R)-2-[[4-(2-chloro-4-fluoro-phenyl)-7-quinolyl]oxy]-N,N-dimethyl-propanamide]
12 | 10 to 50 nM | 100 to 1000 nM | C[C@@H](Oc1ccc2c(-c3ccc(F)cc3Cl)ccnc2c1)C(=O)NC(C)(C)C [Compound 47, (2R)-N-tert-butyl-2-[[4-(2-chloro-4-fluoro-phenyl)-7-quinolyl]oxy]propanamide]
13 | 50 to 500 nM | 100 to 1000 nM | CC(C)NC(=O)[C@@H](C)Oc1ccc2c(-c3ccccc3Cl)ccnc2c1 [Compound 48, (2R)-2-[[4-(2-chlorophenyl)-7-quinolyl]oxy]-N-isopropyl-propanamide]
